Values after ≈ are worked out from the molar mass of the structure shown.
Experiments:
[1] = system: SARS-CoV-2 (USA-WA1/2020 strain); test: SARS-CoV-2 neutralization assay, cytopathic effects (CPE) in Vero E6 cells; format: cell-based; conditions: for Day 2 CPE / Day 4 CPE: 1.25 mg/mL, five replicate wells
[2] = system: SARS-CoV-2 infection / COVID-19; test: TUDCA capsules taken by persons with or exposed to COVID-19; format: in vivo; conditions: 500 mg capsule twice per day
[3] = pre-incubation with virus 60 minutes
[4] = simultaneous addition of drug and virus, ~100 TCID50/well

Row | Structure (SMILES) | EC50 ([1]; Severe acute respiratory syndrome coronavirus 2, Vero C1008, calculated by the Quest Graph EC50 Calculator, inhibition of SARS-CoV-2 CPE in Vero E6 cells) | Day 2 CPE [1, 3] | Day 2 CPE [1, 4] | Day 4 CPE [1, 4] | Health outcome of member who tested positive for SARS-CoV-2 with COVID-19 symptoms ([2]; Example 2, oral, one rescue squad member) | COVID-19 symptoms despite repeated exposure to COVID-19 patients ([2]; Example 2, twelve rescue squad members, at least 3 months) | Health outcome of subject presenting with COVID-19 symptoms ([2]; Example 3, one subject)
1 | CC(CCC(=O)NCCS(=O)(=O)O)C1CCC2C3C(O)CC4CC(O)CCC4(C)C3CCC12C (stereo not shown) [TUDCA acid, tauroursodeoxycholic acid] | 980 µg/mL (≈ 1960 µM) | no CPE | no CPE | no CPE | – | – | –
2 | CC(CCC(=O)NCCS(=O)(=O)O)C1CCC2C3C(O)CC4CC(O)CCC4(C)C3CCC12C (stereo not shown) [TUDCA, tauroursodeoxycholic acid] | – | – | – | – | health returned to normal | None of the other twelve members have presented with COVID-19 symptoms | health returned to normal
3 | C[C@H](CCC(=O)NCCS(=O)(=O)[O-])[C@H]1CC[C@H]2[C@@H]3[C@@H](O)C[C@@H]4C[C@H](O)CC[C@]4(C)[C@H]3CC[C@]12C.[Na+] [Sodium TUDCA] | – | no CPE | no CPE | no CPE | – | – | –
